{
  "source": "patent US10131652B2",
  "about": "“Pyrimidinyloxy benzene derivatives as herbicides” (E. I. DU PONT DE NEMOURS AND COMPANY, priority 2014, dated 2018)",
  "test_in_all_cases": "Test F pre-/postemergence plant response",
  "format_in_all_cases": "in vivo",
  "key": {"[1]": {"tested_on": "goosegrass (Eleusine indica)", "conditions": "Eleusine indica, pre-emergence, scale 0 to 100, read-out: Plant response rating, Goosegrass", "from_the_text": "(§1) Seeds of plant species selected from corn (Zea mays), soybean (Glycine max), velvetleaf (Abutilon theophrasti), lambsquarters (Chenopodium album), wild poinsettia (Euphorbia heterophylla), palmer pigweed (Amaranthus palmeri), waterhemp (common waterhemp, Amaranthus rudis), surinam grass (Brachiaria decumbens), large (Lg) crabgrass (Digitaria sanguinalis), Brazilian crabgrass (Digitaria horizontalis), fall panicum (Panicum dichotomiflorum), giant foxtail (Setaria faberii), green foxtail (Setaria viridis), goosegrass (Eleusine indica), johnsongrass (Sorghum halepense), ragweed (common ragweed, Ambrosia elatior), barnyardgrass (Echinochloa crus-galli), sandbur (southern sandbur, Cenchrus echinatus), arrowleaf sida (Sida rhombifolia), Italian ryegrass (Lolium multiflorum), dayflower (Virginia (VA) dayflower, Commelina virginica), field bindweed (Convolvulus arvensis), cocklebur (common cocklebur, Xanthium strumarium), momingglory (Ipomoea coccinea), nightshade (eastern black nightshade, Solanum ptycanthum), kochia (Kochia scoparia), yellow nutsedge (Cyperus esculentus), and hairy beggarticks (Bidens pilosa), were planted into a silt loam soil and treated preemergence with test chemicals formulated in a non-phytotoxic solvent mixture which included a surfactant.\n(§2) At the same time, plants from these crop and weed species and also waterhemp_RES1, (ALS & Triazine resistant common waterhemp, Amaranthus rudis), and waterhemp_RES2, (ALS & HPPD resistant common waterhemp, Amaranthus rudis) were treated with postemergence applications of test chemicals formulated in the same manner. Plants ranged in height from 2 to 18 cm for postemergence treatments (1- to 4-leaf stage).\n(§3) Treated plants and controls were maintained in a greenhouse for 14 to 21 days, after which time all species were compared to controls and visually evaluated. Plant response ratings, summarized in Table F, are based on a scale of 0 to 100 where 0 is no effect and 100 is complete control. A dash (-) response means no test result."}, "[2]": {"tested_on": "johnsongrass (Sorghum halepense)", "conditions": "Sorghum halepense, pre-emergence, scale 0 to 100, read-out: Plant response rating, Johnsongrass", "from_the_text": "as §1, §2, §3"}, "[3]": {"tested_on": "field bindweed (Convolvulus arvensis)", "conditions": "Convolvulus arvensis, scale 0 to 100, read-out: Plant response rating, Field Bindweed", "from_the_text": "as §1, §2, §3"}, "[4]": {"tested_on": "waterhemp (common waterhemp, Amaranthus rudis)", "conditions": "Amaranthus tuberculatus, scale 0 to 100, read-out: Plant response rating, Waterhemp", "from_the_text": "as §1, §2, §3"}, "corn (Zea mays)": {"tested_on": "corn (Zea mays)", "conditions": "Zea mays, scale 0 to 100", "from_the_text": "as §1, §2, §3"}, "[5]": {"tested_on": "morningglory (Ipomoea coccinea)", "conditions": "Ipomoea, pre-emergence, scale 0 to 100, read-out: Plant response rating, Morningglory", "from_the_text": "as §1, §2, §3"}, "[6]": {"tested_on": "dayflower (Virginia (VA) dayflower, Commelina virginica)", "conditions": "Commelina virginica, scale 0 to 100, read-out: Plant response rating, Dayflower, VA", "from_the_text": "as §1, §2, §3"}, "soybean (Glycine max)": {"tested_on": "soybean (Glycine max)", "conditions": "Glycine max, scale 0 to 100, read-out: Plant response rating, Soybean", "from_the_text": "as §1, §2, §3"}, "[7]": {"conditions": "post-emergence, 8 g ai/ha Postemergence"}, "[8]": {"conditions": "post-emergence, 16 g ai/ha Postemergence"}, "[9]": {"conditions": "post-emergence, 31 g ai/ha Postemergence"}, "[10]": {"conditions": "post-emergence, 62 g ai/ha Postemergence"}, "[11]": {"conditions": "post-emergence, 125 g ai/ha Postemergence"}, "[12]": {"conditions": "pre-emergence, 8 g ai/ha Preemergence"}, "[13]": {"conditions": "pre-emergence, 16 g ai/ha Preemergence"}, "[14]": {"conditions": "pre-emergence, 31 g ai/ha Preemergence"}, "[15]": {"conditions": "pre-emergence, 62 g ai/ha Preemergence"}, "[16]": {"conditions": "pre-emergence, 125 g ai/ha Preemergence"}},
  "note": "Like-named read-outs stand apart in the source and are kept apart here.",
  "data": [
    {"smiles": "FC(F)c1cc(-c2ccccc2Oc2ncc(Cl)cn2)no1", "note": "[Compound 35, 5-chloro-2-[2-[5-(difluoromethyl)-3-isoxazolyl]phenoxy]pyrimidine]", "values": [
      {"measurement": "pest or weed control at 8 g/ha", "setting": "[1]; 8 g ai/ha Preemergence", "value": 0, "unit": "%"},
      {"measurement": "pest or weed control at 16 g/ha", "setting": "[1]; 16 g ai/ha Preemergence", "value": 0, "unit": "%"},
      {"measurement": "pest or weed control at 31 g/ha", "setting": "[1]; 31 g ai/ha Preemergence", "value": 60, "unit": "%"},
      {"measurement": "pest or weed control at 125 g/ha", "setting": "[1]; 125 g ai/ha Preemergence", "value": 95, "unit": "%"},
      {"measurement": "pest or weed control at 62 g/ha", "setting": "[1]; Preemergence", "value": 75, "unit": "%"},
      {"measurement": "pest or weed control at 8 g/ha", "setting": "[2]; 8 g ai/ha Preemergence", "value": 0, "unit": "%"},
      {"measurement": "pest or weed control at 16 g/ha", "setting": "[2]; 16 g ai/ha Preemergence", "value": 0, "unit": "%"},
      {"measurement": "pest or weed control at 31 g/ha", "setting": "[2]; 31 g ai/ha Preemergence", "value": 0, "unit": "%"},
      {"measurement": "pest or weed control at 125 g/ha", "setting": "[2]; 125 g ai/ha Preemergence", "value": 65, "unit": "%"},
      {"measurement": "pest or weed control at 62 g/ha", "setting": "[2]; Preemergence", "value": 35, "unit": "%"},
      {"measurement": "pest or weed control at 8 g/ha", "setting": "[3]; [7]", "value": 20, "unit": "%"},
      {"measurement": "pest or weed control at 16 g/ha", "setting": "[3]; [8]", "value": 30, "unit": "%"},
      {"measurement": "pest or weed control at 31 g/ha", "setting": "[3]; [9]", "value": 35, "unit": "%"},
      {"measurement": "pest or weed control at 62 g/ha", "setting": "[3]; [10]", "value": 50, "unit": "%"},
      {"measurement": "pest or weed control at 125 g/ha", "setting": "[3]; [11]", "value": 70, "unit": "%"},
      {"measurement": "pest or weed control at 8 g/ha", "setting": "[3]; [12]", "value": 0, "unit": "%"},
      {"measurement": "pest or weed control at 16 g/ha", "setting": "[3]; [13]", "value": 35, "unit": "%"},
      {"measurement": "pest or weed control at 31 g/ha", "setting": "[3]; [14]", "value": 50, "unit": "%"},
      {"measurement": "pest or weed control at 62 g/ha", "setting": "[3]; [15]", "value": 50, "unit": "%"},
      {"measurement": "pest or weed control at 125 g/ha", "setting": "[3]; [16]", "value": 50, "unit": "%"},
      {"measurement": "pest or weed control at 8 g/ha", "setting": "[4]; [7]", "value": 70, "unit": "%"},
      {"measurement": "pest or weed control at 16 g/ha", "setting": "[4]; [8]", "value": 85, "unit": "%"},
      {"measurement": "pest or weed control at 31 g/ha", "setting": "[4]; [9]", "value": 90, "unit": "%"},
      {"measurement": "pest or weed control at 62 g/ha", "setting": "[4]; [10]", "value": 100, "unit": "%"},
      {"measurement": "pest or weed control at 125 g/ha", "setting": "[4]; [11]", "value": 100, "unit": "%"},
      {"measurement": "pest or weed control at 8 g/ha", "setting": "[4]; [12]", "value": 100, "unit": "%"},
      {"measurement": "pest or weed control at 16 g/ha", "setting": "[4]; [13]", "value": 100, "unit": "%"},
      {"measurement": "pest or weed control at 31 g/ha", "setting": "[4]; [14]", "value": 100, "unit": "%"},
      {"measurement": "pest or weed control at 125 g/ha", "setting": "[4]; [16]", "value": 100, "unit": "%"},
      {"measurement": "pest or weed control at 62 g/ha", "setting": "[4]; pre-emergence, Preemergence", "value": 100, "unit": "%"},
      {"measurement": "Corn plant response rating (crop injury, 0 = no effect, 100 = complete kill) at 8 g/ha", "setting": "corn (Zea mays); [7]", "value": 10, "unit": "%"},
      {"measurement": "Corn plant response rating (crop injury, 0 = no effect, 100 = complete kill) at 16 g/ha", "setting": "corn (Zea mays); [8]", "value": 10, "unit": "%"},
      {"measurement": "Corn plant response rating (crop injury, 0 = no effect, 100 = complete kill) at 31 g/ha", "setting": "corn (Zea mays); [9]", "value": 15, "unit": "%"},
      {"measurement": "Corn plant response rating (crop injury, 0 = no effect, 100 = complete kill) at 62 g/ha", "setting": "corn (Zea mays); [10]", "value": 15, "unit": "%"},
      {"measurement": "Corn plant response rating (crop injury, 0 = no effect, 100 = complete kill) at 125 g/ha", "setting": "corn (Zea mays); [11]", "value": 20, "unit": "%"},
      {"measurement": "Corn plant response rating (crop injury, 0 = no effect, 100 = complete kill) at 8 g/ha", "setting": "corn (Zea mays); [12]", "value": 0, "unit": "%"},
      {"measurement": "Corn plant response rating (crop injury, 0 = no effect, 100 = complete kill) at 16 g/ha", "setting": "corn (Zea mays); [13]", "value": 0, "unit": "%"},
      {"measurement": "Corn plant response rating (crop injury, 0 = no effect, 100 = complete kill) at 31 g/ha", "setting": "corn (Zea mays); [14]", "value": 30, "unit": "%"},
      {"measurement": "Corn plant response rating (crop injury, 0 = no effect, 100 = complete kill) at 62 g/ha", "setting": "corn (Zea mays); [15]", "value": 0, "unit": "%"},
      {"measurement": "Corn plant response rating (crop injury, 0 = no effect, 100 = complete kill) at 125 g/ha", "setting": "corn (Zea mays); [16]", "value": 20, "unit": "%"},
      {"measurement": "pest or weed control at 8 g/ha", "setting": "[5]; 8 g ai/ha Preemergence", "value": 0, "unit": "%"},
      {"measurement": "pest or weed control at 16 g/ha", "setting": "[5]; 16 g ai/ha Preemergence", "value": 0, "unit": "%"},
      {"measurement": "pest or weed control at 31 g/ha", "setting": "[5]; 31 g ai/ha Preemergence", "value": 0, "unit": "%"},
      {"measurement": "pest or weed control at 125 g/ha", "setting": "[5]; 125 g ai/ha Preemergence", "value": 65, "unit": "%"},
      {"measurement": "pest or weed control at 62 g/ha", "setting": "[5]; Preemergence", "value": 30, "unit": "%"},
      {"measurement": "pest or weed control at 8 g/ha", "setting": "[6]; [7]", "value": 10, "unit": "%"},
      {"measurement": "pest or weed control at 16 g/ha", "setting": "[6]; [8]", "value": 40, "unit": "%"},
      {"measurement": "pest or weed control at 31 g/ha", "setting": "[6]; [9]", "value": 40, "unit": "%"},
      {"measurement": "pest or weed control at 62 g/ha", "setting": "[6]; [10]", "value": 50, "unit": "%"},
      {"measurement": "pest or weed control at 125 g/ha", "setting": "[6]; [11]", "value": 80, "unit": "%"},
      {"measurement": "pest or weed control at 8 g/ha", "setting": "[6]; [12]", "value": 0, "unit": "%"},
      {"measurement": "pest or weed control at 16 g/ha", "setting": "[6]; [13]", "value": 25, "unit": "%"},
      {"measurement": "pest or weed control at 31 g/ha", "setting": "[6]; [14]", "value": 65, "unit": "%"},
      {"measurement": "pest or weed control at 62 g/ha", "setting": "[6]; [15]", "value": 90, "unit": "%"},
      {"measurement": "pest or weed control at 125 g/ha", "setting": "[6]; [16]", "value": 95, "unit": "%"},
      {"measurement": "plant injury at 8 g/ha", "setting": "soybean (Glycine max); [7]", "value": 70, "unit": "%"},
      {"measurement": "plant injury at 16 g/ha", "setting": "soybean (Glycine max); [8]", "value": 80, "unit": "%"},
      {"measurement": "plant injury at 31 g/ha", "setting": "soybean (Glycine max); [9]", "value": 85, "unit": "%"},
      {"measurement": "plant injury at 62 g/ha", "setting": "soybean (Glycine max); [10]", "value": 95, "unit": "%"},
      {"measurement": "plant injury at 125 g/ha", "setting": "soybean (Glycine max); [11]", "value": 98, "unit": "%"},
      {"measurement": "plant injury at 8 g/ha", "setting": "soybean (Glycine max); [12]", "value": 0, "unit": "%"},
      {"measurement": "plant injury at 16 g/ha", "setting": "soybean (Glycine max); [13]", "value": 35, "unit": "%"}
    ]}
  ]
}
